One assay relates to His-EGF(A)-Fc. As to the kind of experiment: His-EGF(A)-Fc TR-FRET counterscreen.
Assay [1] has as its target T1, PCSK9-R167A:R215A:R218A (PCSK9-AAA) (Homo sapiens, UniProt Q8NBP7, R167A/R215A/R218A).
T1 construct: made in house; host or cells: CHO (transient)
As to the kind of experiment: FXIa cleavage assay of the P′ helix of PCSK9-AAA. The following applies: immunoblot with anti-N-terminal peptide antibody. In kind it is biochemical. As to the method:
The PCSK9-AAA mutant (2.6 μM) was incubated with 50 nM FXIa (Haematologic Technologies) in Tris buffer (50 mM Tris, 150 mM NaCl, 4 mM CaCl2, pH 8.0) at room temperature for the indicated time periods. […] After SDS-PAGE of the samples, proteins were transferred to a nitrocellulose membrane using iBlot (Invitrogen). Proteins were then probed with a polyclonal rabbit antibody (1:3000) raised against the PCSK9 N-terminal peptide (^153[…]^168 (SEQ ID NO: 5)), followed with HRP-conjugated donkey anti-rabbit antibody (1:5000, GE Healthcare) using iBind (Invitrogen). PCSK9 signals were detected by ECL (GE Healthcare) and visualized by autoradiography.
Proteins were then probed with a polyclonal rabbit antibody (1:3000) raised against the PCSK9 N-terminal peptide (^153[…]^168 (SEQ ID NO: 5)), followed with HRP-conjugated donkey anti-rabbit antibody (1:5000, GE Healthcare) using iBind (Invitrogen). PCSK9 signals were detected by ECL (GE Healthcare) and visualized by autoradiography.
For orientation: A western blot detects proteins with antibodies after separation by electrophoresis.

The target of assay [2] is T2, PCSK9 (Homo sapiens, UniProt Q8NBP7). As to the kind of experiment: Cell surface LDLR assay with HepG2 cells. In kind it is cell-based. Particulars: HepG2 cells, 15 μg/mL PCSK9, 4 h, FACS. The method, then:
HepG2 cells (ATCC; Manassas, Va.) were seeded into 48 well plates (Corning; Corning, N.Y.) at 1×10^5 cells per well in high glucose medium (DMEM, Gibco; Carlsbad, Calif.) containing 2 mM glutamine (Sigma), penicillin/streptomycin (Gibco) and 10% FBS (Sigma; St. Louis, Mo.) and incubated overnight. Then the medium was changed to DMEM containing 10% lipoprotein deficient serum (LPDS, Sigma). After 24 h, 15 μg/mL PCSK9 was incubated with peptides or Fab33 for 30 min, added to the cells and incubated at 37° C. for 4 h. Cells were rinsed with PBS and detached using Cell Dissociation Buffer in PBS (Gibco). After centrifugation, the resuspended cells were incubated with 1:20 anti LDLR antibody (Progen Biotechnik; Heidelberg, Germany) on ice for 10 min. The samples were then washed with PBS and incubated with 1:200 diluted goat anti mouse IgG (H+L) Alexa Fluor 488 (Invitrogen; Carlsbad, Calif.) on ice for 5 min. After two PBS washes, cells were re suspended in PBS containing 2.5 μg/mL of propidium iodide and analyzed on a dual laser flow cytometer (FACScan, Becton Dickinson; Franklin Lakes, N.J.). Relative fluorescence units (RFUs) were used to quantify LDLR expression levels on the HepG2 cell surface. Cell surface LDLR levels were expressed as percent of LDLR levels measured in the absence of PCSK9 (=control).
The effect of Compound 229 on PCSK9-mediated LDL receptor degradation was measured in a HepG2 cell assay as previously described (Zhang et al., J Biol Chem. 2014 Jan. 10; 289(2):942-55). Peptides at various concentrations were preincubated with 15 μg/mL PCSK9 in the presence of 0.5% DMSO for 30 min prior to the addition to cells. After a 4 h incubation, the cells were processed for measurements of LDL receptor surface levels by flow cytometry as described (Zhang et al., J Biol Chem. 2014 Jan. 10; 289(2):942-55) (FIG. 37).

Assay [3] has as its target T2, PCSK9. As to the kind of experiment: Phage competition ELISA. In kind it is binding. As to the method:
The sequences of selected clones were fused to the N-terminus of M13 major coat protein (p8) using Kunkel mutagenesis method (Kunkel et al., Methods Enzymol 154, 367-82). The resulting construct was transformed to E. Coli. XL1 blue, single colony was grown in 1 mL 2YT supplemented with 50 μg/mL carbenicillin, 10 μg/mL Tetracycline and M13 KO7 helper phage at 37° C. for 2 h, Kanamycin was added to final concentration of 25 μg/mL, growth was continued at 37° C. for 6 h. The culture was transferred to 30 mL 2YT supplemented with 50 μg/mL carbenicillin and 25 μg/mL kanamycin and grown at 37° C. overnight. The next day, the phage was harvested and purified using the standard protocol (Tonikian et al. Nat Protoc. 2007; 2(6):1368-86). The serially diluted phage solution was applied to the biotinylated PCSK9 and biotinylated PCSK9Δhelix that had been immobilized for 15 min on a 384-well MaxiSorp ImmunoPlate previously coated with 5 μg/mL NeutrAvidin and blocked with Block buffer. The plate was incubated at 4° C. for 1 h, washed 10 times with PT buffer (PBS, 0.05% Tween® 20). The bound phage was detected with anti-M13-HRP and the ELISA signal was read at OD450 nm. The background was ELISA signal that the phage directly bound to NeutrAvidin-coated plate. The data was plotted and the curve fitted with KaleidaGraph. Sub-saturating phage concentration that gave 80% of maximum binding signal was determined by the binding curve.
IC50 measurements were performed by mixing a fixed sub-saturating concentration of peptide-displaying phage with a serial dilution of synthetic peptides in PBT buffer. The mixture was added to plates coated with PCSK9 and PCSK9Δhelix and incubated for 1 h at room temperature. The plates were then washed 10 times with PBT buffer and the bound phage was detected by anti-M13-HRP. The data was plotted, curve fitted and IC50 derived by use of KaleidaGraph. All measurements were repeated 3 times independently.
A general note: ELISA stands for enzyme-linked immunosorbent assay.

The target of assay [4] is T2, PCSK9. As to the kind of experiment: Surface plasmon resonance biosensor-based affinity analysis (Example 4). The class given is binding. Particulars: for Kd: Table 7, Target PCSK9, SPR at 20° C. Background: In SPR one partner is held on a chip, and binding of the other changes the refractive index at the surface.
Assay [5] concerns the target T3, PCSK9Δhelix (Homo sapiens, UniProt Q8NBP7).
T3 construct: Human PCSK9 construct M1-Q692 with an engineered TEV site (residue deletion Y166, R167); made in house; host or cells: CHO
The description is as above. The class given is binding.

Assay [6] has as its target T2, PCSK9. As to the kind of experiment: PCSK9/EGF(A) TR-FRET binding assay. Particulars: TR-FRET; Table 8D, disulfide-cyclized extension peptides; read-out: PCSK9/EGF(A) IC50.
For assay [7], the target named is T3, PCSK9Δhelix. As to the kind of experiment: PCSK9Δhelix/Ab20 TR-FRET binding assay. The following applies: TR-FRET, read-out: PCSK9Δhelix/Ab20 IC50.
The mark [8] stands for this setting: TR-FRET counterscreen, Table 8D, * = some inhibition at highest concentrations, not sufficient to fit an IC50.
[9] abbreviates: Example 4, read-out: Kd for PCSK9Δhelix.
Where [10] appears, read: Table 8D, disulfide-cyclized extension peptides.
[11] abbreviates: Table 7, Target PCSK9Δhelix, SPR at 20° C., read-out: Kd.

Entries after “also recorded” stand apart in the source; their conditions may differ. Where two headings read alike, the source gives them in different places. Bridge positions count the residues as written; N and C are the ends. Peptide text beside a SMILES is read from it. Some results are limits rather than exact numbers.

`CC(=O)N[C@H](C(=O)N[C@H](C(=O)N[C@@H](Cc1ccccc1)C(=O)N[C@H](C(=O)N[C@@H](CO)C(=O)N[C@@H](Cc1c[nH]c2ccccc12)C(=O)N[C@@H](CCC(=O)O)C(=O)N[C@@H](CCC(=O)O)C(=O)N[C@@H](Cc1ccc(O)cc1)C(=O)N[C@@H](CC(C)C)C(=O)N[C@@H](CC(=O)O)C(=O)N[C@@H](Cc1c[nH]c2ccccc12)C(=O)N[C@H](C(N)=O)C(C)C)[C@@H](C)O)C(C)C)[C@@H](C)O` [Pep2-8, reference compound]: in the assay on His-EGF(A)-Fc (counterscreen, Example 7), the IC50 was greater than 50 µM. In addition, the “effect on FXIa-mediated cleavage of the P′ helix of PCSK9-AAA” value in assay [1] is given as “largely prevented cleavage”. Moreover, on PCSK9 [2], the EC50 (commonly the concentration giving half of the maximal effect) was 5 to 10 µM. Further, at PCSK9 [3], the “competition with binding of phage-displayed Pep2-8 to PCSK9” value (shortened to “competition with binding”) is recorded as “inhibited phage-displayed Pep2-8 binding”.
Take `CC[C@H](C)[C@@H]1NC(=O)[C@H](CCCNC(=N)N)NC(=O)[C@H](CCC(N)=O)NC(=O)[C@H](CC(C)C)NC(=O)[C@H](CC(N)=O)NC(=O)[C@H](Cc2c[nH]c3ccccc23)NC(=O)[C@@H]2CCCN2C(=O)[C@H](CC(C)C)NC(=O)[C@H](CCCNC(=N)N)NC(=O)[C@@H](NC(=O)CNC(=O)[C@@H](N)CO)CSSC[C@@H](C(N)=O)NC(=O)[C@@H]2CCCN2C(=O)[C@H](CC(C)C)NC(=O)CNC1=O` [Compound K9gvpep4] (H-SGCRLPWNLQRIGLPC-NH2; disulfide 3-16): on PCSK9 [3], the “competition with binding” value is recorded as “did not compete”.
For the compound `CC[C@H](C)[C@@H]1NC(=O)[C@H](CCCNC(=N)N)NC(=O)[C@H](C)NC(=O)[C@H](CC(C)C)NC(=O)[C@H](CC(N)=O)NC(=O)[C@H](Cc2c[nH]c3ccccc23)NC(=O)[C@@H]2CCCN2C(=O)[C@H](CC(C)C)NC(=O)[C@H](CCCNC(=N)N)NC(=O)[C@@H](NC(C)=O)CSSC[C@@H](C(N)=O)NC(=O)[C@@H]2CCCN2C(=O)[C@H](CC(C)C)NC(=O)CNC1=O` [Compound 73] (Ac-CRLPWNLARIGLPC-NH2; disulfide 1-14), the values for the IC50 in the assay with His-EGF(A)-Fc (setting [8]), at PCSK9 [6] and at PCSK9Δhelix [7] (setting [10]) were greater than 50 µM, greater than 50 µM and 0.915 µM, respectively. The values for the Kd at PCSK9 [4] and at PCSK9Δhelix [5] (setting [9]) were 11 µM and 0.167 µM, respectively.
`CC(=O)N[C@H](C(=O)N[C@H](C(=O)N[C@@H](Cc1ccccc1)C(=O)N[C@H](C(=O)N[C@@H](CO)C(=O)N[C@@H](Cc1c[nH]c2cc(F)ccc12)C(=O)N[C@@H](CCC(=O)O)C(=O)N[C@@H](CCC(=O)O)C(=O)N[C@@H](Cc1ccc(O)cc1)C(=O)N[C@@H](CC(C)C)C(=O)N[C@@H](CC(=O)O)C(=O)N[C@@H](Cc1c[nH]c2ccccc12)C(=O)N[C@H](C(N)=O)C(C)C)[C@@H](C)O)C(C)C)[C@@H](C)O` [Compound 3, Ac-TVFTS(W6fl)EEYLDWV-NH2]: the “improvement of binding to PCSK9 relative to Pep2-8” value on PCSK9 [4] (Table 7) is “about 3 fold”. Moreover, the Kd (usually the free concentration of one partner at which half of the binding sites on the other are occupied at equilibrium, for simple one-to-one binding) on PCSK9 [4] turned out to be 1.4 µM; at PCSK9Δhelix [5] (setting [11]), 2.58 µM.
Turning to `CC[C@H](C)[C@@H]1NC(=O)[C@H](CCCNC(=N)N)NC(=O)[C@H](CCC(N)=O)NC(=O)[C@H](CC(C)C)NC(=O)[C@H](CC(N)=O)NC(=O)[C@H](Cc2c[nH]c3ccccc23)NC(=O)[C@@H]2CCCN2C(=O)[C@H](CC(C)C)NC(=O)[C@H](CCCNC(=N)N)NC(=O)[C@@H](NC(C)=O)CSSC[C@@H](C(N)=O)NC(=O)[C@@H]2CCCN2C(=O)[C@H](CC(C)C)NC(=O)CNC1=O` [Compound 32] (Ac-CRLPWNLQRIGLPC-NH2; disulfide 1-14), the IC50 in the assay with His-EGF(A)-Fc (setting [8]) is greater than 50 µM; on PCSK9 [6], greater than 50 µM; at PCSK9Δhelix [7] (Example 7), roughly 1 µM; on PCSK9Δhelix [7] (setting [10]), 0.97 µM. For the same compound, the values for the Kd at PCSK9 [4] and on PCSK9Δhelix [5] (setting [9]) were 1.3 µM and 0.21 µM, respectively.
For `CC[C@H](C)[C@@H]1NC(=O)[C@H](CCCNC(=N)N)NC(=O)[C@H](CCC(N)=O)NC(=O)[C@H](CC(C)C)NC(=O)[C@H](CC(N)=O)NC(=O)[C@H](Cc2c[nH]c3ccccc23)NC(=O)[C@@H]2CCCN2C(=O)[C@H]([C@@H](C)CC)NC(=O)[C@H](Cc2ccccc2)NC(=O)[C@@H](NC(=O)CNC(=O)[C@@H](N)CO)CSSC[C@@H](C(N)=O)NC(=O)[C@H](CC(C)C)NC(=O)[C@H](CC(C)C)NC(=O)CNC1=O` [Compound K9gvpep1] (H-SGCFIPWNLQRIGLLC-NH2; disulfide 3-16), the “competition with binding” value on PCSK9 [3] is “did not compete”.
In the case of `CC[C@H](C)[C@@H]1NC(=O)[C@H](CCCNC(=N)N)NC(=O)[C@H](CCC(N)=O)NC(=O)[C@H](CC(C)C)NC(=O)[C@H](CC(N)=O)NC(=O)[C@H](Cc2c[nH]c3ccccc23)NC(=O)[C@@H]2CCCN2C(=O)[C@H]([C@@H](C)CC)NC(=O)[C@H](Cc2ccccc2)NC(=O)[C@@H](NC(=O)CNC(=O)[C@@H](N)CO)CSSC[C@@H](C(N)=O)NC(=O)[C@H](CC(C)C)NC(=O)[C@H](CC(C)C)NC(=O)CNC1=O` [Compound 26] (H-SGCFIPWNLQRIGLLC-NH2; disulfide 3-16), in assay [1], the “effect on FXIa-mediated cleavage of the P′ helix of PCSK9-AAA” value was “accelerated the cleavage reaction; also recorded: able to increase the FXIa-mediated cleavage; also recorded: strongly accelerated the cleavage”. The Kd at PCSK9 [4] came to 29 µM; on PCSK9Δhelix [5] (setting [11]), 0.803 µM.
